± gives the standard deviation of the averaged measurements.
What was measured:
Danio rerio embryo [1] = test: EC50 Yolk sac size_Increase; conditions: exposure time: 4 dpf
Description: (§1)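 Zebrafish embryos (UFZ-OBI strain) were exposed from 2 hpf for 48 h (2 dpf) or 96 h (4 dpf) at 28 °C; spontaneous tail coiling was scored at 25 hpf. Morphological features from automated image analysis (FishInspector), heart rate and locomotor response were fitted with drc models. Quantal endpoints were dichotomised at 2.5 SD from controls and fitted with a log-logistic model; heart rate, pigmentation and STC were normalised to the replicate control mean. Betamethasone was tested as betamethasone dipropionate, diflorasone as diflorasone diacetate.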

Danio rerio embryo [2] = test: EC10 Otolith-eye distance_Decrease; higher = less potent; conditions: exposure time: 4 dpf
Description: as §1

Danio rerio embryo [3] = test: EC20 Eye size_Decrease; higher = less potent
Description: as §1

Danio rerio embryo [4] = test: EC20 Head trunk angle_Decrease; higher = less potent; conditions: exposure time: 2 dpf
Description: as §1

Danio rerio embryo [5] = test: EC50 Body length_Decrease
Description: as §1

Danio rerio embryo [6] = test: EC10 Curvature_Increase; higher = less potent
Description: as §1

Danio rerio embryo [7] = test: EC50 Curvature_Increase
Description: as §1

Danio rerio embryo [8] = test: EC10 Pericard size_Increase; higher = less potent
Description: as §1

Danio rerio embryo [9] = test: EC20 Eye-jaw distance_Decrease; higher = less potent; conditions: exposure time: 4 dpf
Description: as §1

Danio rerio embryo [10] = tested on: Danio rerio embryo
Description: as §1

Danio rerio embryo [11] = test: EC50 Eye-jaw distance_Decrease; conditions: exposure time: 4 dpf
Description: as §1

Danio rerio embryo [12] = test: EC20 Curvature_Increase; higher = less potent
Description: as §1

Danio rerio embryo [13] = test: EC10 Bladder size_Decrease; higher = less potent; conditions: exposure time: 4 dpf
Description: as §1

Danio rerio embryo [14] = test: EC20 Otolith-eye distance_Decrease; higher = less potent; conditions: exposure time: 4 dpf
Description: as §1

Danio rerio embryo [15] = test: EC10 Yolk sac size_Increase; higher = less potent; conditions: exposure time: 4 dpf
Description: as §1

Danio rerio embryo [16] = conditions: exposure time: 4 dpf
Description: as §1

Danio rerio embryo [17] = test: EC50 Otolith-eye distance_Decrease; conditions: exposure time: 4 dpf
Description: as §1

Danio rerio embryo [18] = test: EC20 Pericard size_Increase; higher = less potent
Description: as §1

Danio rerio embryo [19] = test: EC10 Body length_Decrease; higher = less potent
Description: as §1

Danio rerio embryo [20] = test: EC20 Body length_Decrease; higher = less potent
Description: as §1

Danio rerio embryo [21] = test: EC20 LMR dark; higher = less potent; conditions: exposure time: 4 dpf
Description: as §1

Danio rerio embryo [22] = test: EC50 Pericard size_Increase
Description: as §1

Danio rerio embryo [23] = test: EC10 Eye-jaw distance_Decrease; higher = less potent; conditions: exposure time: 4 dpf
Description: as §1

Danio rerio embryo [24] = test: spontaneous tail coiling frequency (coils/min/embryo); higher = more spontaneous movement; conditions: 25 hpf
Description: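 Spontaneous tail coilings of zebrafish embryos exposed from 2 hpf were recorded at 24-25 hpf in 1-min videos and detected by a KNIME workflow from grey-value variance. Betamethasone was tested as the dipropionate, diflorasone as the diacetate.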

Danio rerio embryo [25] = test: EC20 Yolk sac size_Increase; higher = less potent; conditions: exposure time: 4 dpf
Description: as §1

Danio rerio embryo [26] = test: EC10 LMR dark; higher = less potent; conditions: exposure time: 4 dpf
Description: as §1

Danio rerio embryo [27] = test: EC20 Bladder size_Decrease; higher = less potent; conditions: exposure time: 4 dpf
Description: as §1

Danio rerio embryo [28] = test: EC10 Any effect; higher = less potent
Description: as §1

Danio rerio embryo [29] = test: EC50 Bladder size_Decrease; conditions: exposure time: 4 dpf
Description: as §1

Danio rerio embryo [30] = test: EC20 Any effect; higher = less potent
Description: as §1

CC(C)(C)C(O)C(Oc1ccc(Cl)cc1)n1cncn1 (stereo unspecified) [Triadimenol]
Conditions | EC10 Bladder size Decrease [µM] | EC10 Eye-jaw distance Decrease [µM] | EC10 LMR dark [µM] | EC10 Otolith-eye distance Decrease [µM] | EC10 Yolk sac size Increase [µM] | EC20 Bladder size Decrease [µM] | EC20 Eye-jaw distance Decrease [µM] | EC20 Head trunk angle Decrease [µM] | EC20 LMR dark [µM] | EC20 Otolith-eye distance Decrease [µM] | EC20 Yolk sac size Increase [µM] | EC50 Bladder size Decrease [µM] | EC50 Eye-jaw distance Decrease [µM] | EC50 LMR dark [µM] | EC50 Otolith-eye distance Decrease [µM] | EC50 Yolk sac size Increase [µM]
Danio rerio embryo [1] | – | – | – | – | – | – | – | – | – | – | – | – | – | – | – | 114
Danio rerio embryo [2] | – | – | – | 63.4 | – | – | – | – | – | – | – | – | – | – | – | –
Danio rerio embryo [4] | – | – | – | – | – | – | – | 113 | – | – | – | – | – | – | – | –
Danio rerio embryo [9] | – | – | – | – | – | – | 41.2 | – | – | – | – | – | – | – | – | –
Danio rerio embryo [11] | – | – | – | – | – | – | – | – | – | – | – | – | 51.4 | – | – | –
Danio rerio embryo [13] | 19.9 | – | – | – | – | – | – | – | – | – | – | – | – | – | – | –
Danio rerio embryo [14] | – | – | – | – | – | – | – | – | – | 74.3 | – | – | – | – | – | –
Danio rerio embryo [15] | – | – | – | – | 76.8 | – | – | – | – | – | – | – | – | – | – | –
Danio rerio embryo [16] | – | – | – | – | – | – | – | – | – | – | – | – | – | 25.2 | – | –
Danio rerio embryo [17] | – | – | – | – | – | – | – | – | – | – | – | – | – | – | 97.6 | –
Danio rerio embryo [21] | – | – | – | – | – | – | – | – | 10.7 | – | – | – | – | – | – | –
Danio rerio embryo [23] | – | 36.1 | – | – | – | – | – | – | – | – | – | – | – | – | – | –
Danio rerio embryo [25] | – | – | – | – | – | – | – | – | – | – | 88.7 | – | – | – | – | –
Danio rerio embryo [26] | – | – | 6.51 | – | – | – | – | – | – | – | – | – | – | – | – | –
Danio rerio embryo [27] | – | – | – | – | – | 20.2 | – | – | – | – | – | – | – | – | – | –
Danio rerio embryo [29] | – | – | – | – | – | – | – | – | – | – | – | 20.7 | – | – | – | –

Conditions | EC10 Any effect [µM] | EC10 Body length Decrease [µM] | EC10 Curvature Increase [µM] | EC10 Pericard size Increase [µM] | EC20 Any effect [µM] | EC20 Body length Decrease [µM] | EC20 Curvature Increase [µM] | EC20 Eye size Decrease [µM] | EC20 Pericard size Increase [µM] | EC50 Any effect [µM] | EC50 Body length Decrease [µM] | EC50 Curvature Increase [µM] | EC50 Pericard size Increase [µM] | EC50 STC decrease [µM] | spontaneous tail coiling frequency
Danio rerio embryo [3], exposure time: 2 dpf | – | – | – | – | – | – | – | 159 | – | – | – | – | – | – | –
Danio rerio embryo [3], exposure time: 4 dpf | – | – | – | – | – | – | – | 90.2 | – | – | – | – | – | – | –
Danio rerio embryo [5], exposure time: 2 dpf | – | – | – | – | – | – | – | – | – | – | 169 | – | – | – | –
Danio rerio embryo [5], exposure time: 4 dpf | – | – | – | – | – | – | – | – | – | – | 106 | – | – | – | –
Danio rerio embryo [6], exposure time: 2 dpf | – | – | 116 | – | – | – | – | – | – | – | – | – | – | – | –
Danio rerio embryo [6], exposure time: 4 dpf | – | – | 67.2 | – | – | – | – | – | – | – | – | – | – | – | –
Danio rerio embryo [7], exposure time: 2 dpf | – | – | – | – | – | – | – | – | – | – | – | 136 | – | – | –
Danio rerio embryo [7], exposure time: 4 dpf | – | – | – | – | – | – | – | – | – | – | – | 117 | – | – | –
Danio rerio embryo [8], exposure time: 2 dpf | – | – | – | 113 | – | – | – | – | – | – | – | – | – | – | –
Danio rerio embryo [8], exposure time: 4 dpf | – | – | – | 64.1 | – | – | – | – | – | – | – | – | – | – | –
Danio rerio embryo [10], exposure time: 2 dpf | – | – | – | – | – | – | – | – | – | 133 | – | – | – | – | –
Danio rerio embryo [10], exposure time: 4 dpf | – | – | – | – | – | – | – | – | – | 45.5 | – | – | – | – | –
Danio rerio embryo [10], exposure time: 25 h | – | – | – | – | – | – | – | – | – | – | – | – | – | 169 | –
Danio rerio embryo [12], exposure time: 2 dpf | – | – | – | – | – | – | 123 | – | – | – | – | – | – | – | –
Danio rerio embryo [12], exposure time: 4 dpf | – | – | – | – | – | – | 82.4 | – | – | – | – | – | – | – | –
Danio rerio embryo [18], exposure time: 2 dpf | – | – | – | – | – | – | – | – | 146 | – | – | – | – | – | –
Danio rerio embryo [18], exposure time: 4 dpf | – | – | – | – | – | – | – | – | 71 | – | – | – | – | – | –
Danio rerio embryo [19], exposure time: 2 dpf | – | 71.8 | – | – | – | – | – | – | – | – | – | – | – | – | –
Danio rerio embryo [19], exposure time: 4 dpf | – | 71.3 | – | – | – | – | – | – | – | – | – | – | – | – | –
Danio rerio embryo [20], exposure time: 2 dpf | – | – | – | – | – | 98.6 | – | – | – | – | – | – | – | – | –
Danio rerio embryo [20], exposure time: 4 dpf | – | – | – | – | – | 82.5 | – | – | – | – | – | – | – | – | –
Danio rerio embryo [22], exposure time: 2 dpf | – | – | – | – | – | – | – | – | – | – | – | – | 225 | – | –
Danio rerio embryo [22], exposure time: 4 dpf | – | – | – | – | – | – | – | – | – | – | – | – | 84.3 | – | –
Danio rerio embryo [24], 10.6 µM | – | – | – | – | – | – | – | – | – | – | – | – | – | – | 2.49
Danio rerio embryo [24], 21.1 µM | – | – | – | – | – | – | – | – | – | – | – | – | – | – | 2.29
Danio rerio embryo [24], 42.3 µM | – | – | – | – | – | – | – | – | – | – | – | – | – | – | 3.32 ± 0.78
Danio rerio embryo [24], 84.5 µM | – | – | – | – | – | – | – | – | – | – | – | – | – | – | 2.24 ± 0.39
Danio rerio embryo [24], 118.3 µM | – | – | – | – | – | – | – | – | – | – | – | – | – | – | 1.91
Danio rerio embryo [24], 169.1 µM | – | – | – | – | – | – | – | – | – | – | – | – | – | – | 1.28 ± 0.37
Danio rerio embryo [24], 253.6 µM | – | – | – | – | – | – | – | – | – | – | – | – | – | – | 0.06
Danio rerio embryo [24], 338.1 µM | – | – | – | – | – | – | – | – | – | – | – | – | – | – | 0
Danio rerio embryo [28], exposure time: 2 dpf | 123 | – | – | – | – | – | – | – | – | – | – | – | – | – | –
Danio rerio embryo [28], exposure time: 4 dpf | 25.7 | – | – | – | – | – | – | – | – | – | – | – | – | – | –
Danio rerio embryo [30], exposure time: 2 dpf | – | – | – | – | 127 | – | – | – | – | – | – | – | – | – | –
Danio rerio embryo [30], exposure time: 4 dpf | – | – | – | – | 31.7 | – | – | – | – | – | – | – | – | – | –
